Data: a melting point compilation (Tetko et al.; mined from patent text by program, amines drawn as free bases though some values may be those of a salt)

First: CCOC(=O)CCc1ccc(OCC(=O)N(CC)CC)cc1Oc1ncc(C(F)(F)F)cc1Cl
Second: CC(C)c1nn(-c2ccc(C(F)(F)F)cn2)cc1CCCOc1cccc(CCC(=O)O)c1
The melting point of the first is lower: 88.5 to 89 °C for the first, 102 to 103 °C for the second.

First: CC(C)COC[C@H](CC(C)C)NC(=O)[C@H]1O[C@@H]1C(=O)OC(C)C
Second: CCOC(=O)C1=C(N)OC(C)=C(C(=O)OC(C)C)C1c1cccc([N+](=O)[O-])c1 (stereo unspecified)
The melting point of the first is lower: 36 to 38 °C for the first, 135 °C for the second.

Compared with CCc1ccc(Nc2nc3cc(NC(=O)c4cc(OC)c(OC)c(OC)c4)ccc3o2)cc1, COc1ccc(S(=O)(=O)NC(C)c2cc(F)ccc2-c2ccc(F)cc2F)c(OC)c1 (stereo unspecified) is lower in melting point: > 250 °C for the first, 192 to 194 °C for the second.

First: OC(c1ccc(F)cc1)c1cccnc1 (stereo unspecified)
Second: CC(C)c1ccc(C(F)(F)C(F)(F)c2ccccc2)cc1
The melting point of the first is lower: 45 to 47 °C for the first, 97 to 104 °C for the second.

Compared with COc1ccc(S(=O)(=O)N2c3ccc(Br)cc3-c3ccccc3C2c2ccccc2)cc1 (stereo unspecified), COC(=O)c1c(F)cc(OCCNC(=O)C2Cc3ccccc3N2S(=O)(=O)c2ccc(-c3ccc(F)cc3Cl)cc2)cc1F (stereo unspecified) is lower in melting point: 209 to 211 °C for the first, 68 to 74 °C for the second.

Compared with CCCCCCCCCCOc1cc(N=Nc2ccccc2)ccc1OCC1CC1, CCCCc1cnc2ccccc2c1Nc1ccc(C(=O)O)cc1 is higher in melting point: 58 to 60 °C for the first, 276 °C for the second.

First: CN1CCC(OC(c2cccc(O)c2)c2nc3ccccc3s2)CC1 (stereo unspecified)
Second: COc1cccc(CCC(C(=O)c2ccc(O)cc2)c2ccccc2)c1 (stereo unspecified)
The melting point of the first is higher: 201 °C for the first, 125 to 129 °C for the second.

First: CCN(CC)CC1CCCCN1CCNC(=O)N1c2ccccc2NC(=O)c2csc(C)c21 (stereo unspecified)
Second: CN1C(=O)c2c(c3ccc(Cl)cc3n2CCN2CCCCC2)Oc2ccccc21
The melting point of the first is lower: 132 to 133 °C for the first, 160 to 162 °C for the second.

Going from Cc1cccc(C)c1N(Cn1cnc(Cl)c1Cl)C(=O)CCl to CCOC(=O)N(Cc1ccccc1)Cn1cc(Cl)cnc1=O, the melting point rises from 99 °C to 143 °C.

Compared with CCN1C(=O)C(C)(C)N=C(c2ccccc2Cl)c2cc([N+](=O)[O-])ccc21, CCC(C)N1C(=O)c2ccccc2Oc2ncccc21 (stereo unspecified) is lower in melting point: 178 °C for the first, 137 to 138 °C for the second.

Compared with Cc1cc(=O)c2[nH]nc(-c3ccc(Cl)cc3)c2[nH]1, C#Cc1ccc(-c2[nH]c(=O)c3cc(OC)ccc3c2[N+](=O)[O-])cc1 is lower in melting point: 324 to 327 °C for the first, 246 to 248 °C for the second.

Compared with COc1c(Cl)cccc1NS(=O)(=O)c1cc(S(=O)(=O)Nc2cccc(Cl)c2OC)c2cc(O)ccc2c1, O=C(O)c1cccc(-c2cccc(Oc3ccc(Cl)c(Cl)c3)n2)c1 is higher in melting point: 164 to 166 °C for the first, 230 to 231 °C for the second.

First: O=C1CCC2C=C(c3cccnc3)C(O)=CC2N1 (stereo unspecified)
Second: C[C@@H]1C[C@H](C)CN(C(=O)[C@@H]2Cc3cc(Br)ccc3N2c2ncccn2)C1
The melting point of the first is higher: 298 °C for the first, 142 to 144 °C for the second.

Compared with CCCCc1nc2c(c(=O)[nH]1)CN(C(C)=O)CC2, CCOC(=O)c1oc(SC)c2c1CCC(Br)C2=O (stereo unspecified) is higher in melting point: 106 to 113 °C for the first, 130 to 131 °C for the second.

First: Cc1oc(-c2ccccc2)nc1COc1ccc2cc(CCCC3OC(=O)NC3=O)oc2c1 (stereo unspecified)
Second: CCN(CC)c1ccc2cc(-c3nc(-c4ccccc4)cs3)c(=O)oc2c1
The melting point of the first is higher: 159 to 160 °C for the first, 127 to 130 °C for the second.

Compared with CCOCN1C(C)=C(C(=O)O)C(c2cccc([N+](=O)[O-])c2)C(C(=O)O)=C1C, CCOC(=O)c1cc(=O)c2cccc(N3CCN(C)CC3)c2o1 is lower in melting point: 175 to 176 °C for the first, 124 to 125 °C for the second.

First: Cc1cccc(-c2cn(C)cc(-c3cccc(C(F)(F)F)c3)c2=O)c1
Second: Cn1cc(-c2cccc(I)c2)c(=O)c(-c2cccc(C(F)(F)F)c2)c1
The melting point of the first is lower: 155 to 157 °C for the first, 178 to 181 °C for the second.

First: Cc1cc(Oc2ccc(C(F)(F)F)cc2[N+](=O)[O-])nn1C(=O)NC(C)(C)C
Second: CC(O)(c1cccc(C(F)(F)F)c1)c1cc(Cl)ccc1O (stereo unspecified)
The melting point of the first is lower: 104 to 106 °C for the first, 115 °C for the second.

First: CCOC(=O)c1c(O)c2sccc2[nH]c1=O
Second: CCCc1c(CSc2nnc(N)s2)ccc(C(C)=O)c1O
The melting point of the first is higher: 218 °C for the first, 143 to 147 °C for the second.

First: Fc1ccc2c(CN3CCc4ccccc4C3)c[nH]c2c1
Second: O=c1cc(-c2ccncc2)nc2n1CCN2CCCc1c[nH]c2ccccc12
The melting point of the first is lower: 144 to 145 °C for the first, 218 to 220 °C for the second.

First: Cc1c(Br)cccc1N1Cc2cc(C(C)(C)C)sc2C1=O
Second: O=C1c2ccccc2-n2cnc(-c3noc(CCl)n3)c2[C@@H]2CCN12
The melting point of the first is lower: 185 to 186 °C for the first, 205 to 207 °C for the second.

Compared with CCOC(=O)N1CC1C(N)=O (stereo unspecified), CCOC(=O)CCCOc1ccc2c(c1)C[C@@H](NC(=O)OC(C)(C)C)CC2 is lower in melting point: 125 to 128 °C for the first, 96 to 98 °C for the second.

Compared with OC1CCCc2nc3ccccc3c(NCc3ccc(C(F)(F)F)cc3)c21 (stereo unspecified), CC(C)(Cc1ccccc1)C(NC(=O)c1ccc(Cl)cc1)Nc1c(Nc2cncc(C(F)(F)F)c2)c(=O)c1=O (stereo unspecified) is higher in melting point: 174 to 176 °C for the first, 194 to 195 °C for the second.

CC(C)c1ccc(-n2nc(C(F)(F)F)cc2-c2ccc(S(C)(=O)=O)cc2)cc1Cl and COc1cc(OC)cc(-c2ncn(-c3ccc(C(F)(F)F)cc3)c2-c2ccc(N(C)C)cc2)c1 cannot be ordered by melting point: 84 to 86 °C for the first, 84 to 84.5 °C for the second.

Compared with CCCCc1c(CN2C(=O)c3ccccc3C2=O)c(CC(C)C)nc2ccc(OCc3ccccc3)cc12, CC(Cc1ccc(OCc2cccc(C(=O)O)c2)cc1)NCCC(c1ccccc1)c1ccccc1 (stereo unspecified) is higher in melting point: 166 to 168 °C for the first, 209 to 212 °C for the second.

First: Nc1ncccc1-c1nc2ccc(-c3cccnc3)nc2n1-c1ccc(CC(=O)Nc2ccccc2)cc1
Second: COc1ccc2nc(COc3ccc(CC4SC(=O)N(C(c5ccccc5)(c5ccccc5)c5ccccc5)C4=O)cc3)n(C)c2n1 (stereo unspecified)
The melting point of the first is higher: 162 to 164 °C for the first, 80 to 85 °C for the second.

First: CC(C)(C)c1cc(C2SCC(=O)N2CCCBr)cc(C(C)(C)C)c1O (stereo unspecified)
Second: CC(C)(C)c1cc(N(C(=O)CCC(=O)O)c2ccccc2)cc(C(C)(C)C)c1O
The melting point of the first is lower: 130 to 131 °C for the first, 205 to 208 °C for the second.

Compared with CC1CN(c2ccccc2)c2ccccc2N1 (stereo unspecified), Nc1cccc(C=Cc2ccc3ccccc3n2)c1 is higher in melting point: 91 to 93 °C for the first, 158 to 160 °C for the second.

First: Cc1cc(C)cc(C(=O)c2c(C(C)C)c(=O)[nH]c(=O)n2Cc2ccnc(Cl)n2)c1
Second: CC(C)c1c(Sc2cc(Cl)cc(Cl)c2)nc(CO)n1C
The melting point of the first is higher: 197 to 198 °C for the first, 167 to 168 °C for the second.

First: O=C(O)C1=Cc2cc3occ(-c4ccc(Br)cc4)c3cc2OC1C(F)(F)F (stereo unspecified)
Second: O=C(O)C1=Cc2cc3c(cc2OC1C(F)(F)F)OCO3 (stereo unspecified)
The melting point of the first is higher: > 250 °C for the first, 246 to 248 °C for the second.

Compared with Nc1cccc(CSCCNC(=O)c2c(Cl)cccc2Cl)c1, CC(=NO)c1ccccc1NC(C(N)=O)c1c(Cl)cccc1Cl (stereo unspecified) is higher in melting point: 55 to 56 °C for the first, 115 °C for the second.

Compared with CC(=Cc1ccccc1)S(=O)(=O)NC(=O)N1CCCCC1, CC(C)(C)c1ccccc1N1CCN(C(=O)c2nc[nH]n2)CC1 is higher in melting point: 159 to 161 °C for the first, 295 °C for the second.

First: NC(=O)c1ccc(CN2C(=O)C3(COc4cc5c(cc43)OCCO5)c3ccccc32)cc1 (stereo unspecified)
Second: O=C(O)[C@@H]1Cc2ccccc2N1C(=O)CN1CCN(Cc2ccc(Cl)cc2)CC1
The melting point of the first is higher: 236 to 238 °C for the first, 219 to 221 °C for the second.

First: CCCCCC(CC(=O)Nc1cc(CCC(=O)O)ccc1C(C)(C)C)c1c(OC)cccc1OC (stereo unspecified)
Second: O=C(O)c1cccc(C(CCc2ccc(Cl)cc2)CC(=O)c2ccccc2)c1 (stereo unspecified)
The melting point of the first is lower: 52 to 53 °C for the first, 93 to 95 °C for the second.

Compared with COC1CCC2C3CCC4CC(Cl)CCC4(C)C3CCC12C (stereo unspecified), CN(C)C1CCN(Cc2ccc(COc3cccc4c3CN(C3CCC(=O)NC3=O)C4=O)cc2)CC1 (stereo unspecified) is higher in melting point: 151 to 154 °C for the first, 209 to 211 °C for the second.

First: CCCCC(=O)N(Cc1ccc(-c2ccccc2-c2nc(=O)s[nH]2)cc1)c1sccc1C(=O)O
Second: CCOCCOC(=O)c1nc2ccc(COc3cccc(OCc4ccc5ccccc5n4)c3)cc2o1
The melting point of the first is higher: 148 to 149 °C for the first, 84 to 85 °C for the second.

First: CCCc1c(OCc2cccc(-c3nnn[nH]3)c2)ccc(C(C)=O)c1O
Second: O=C(c1ccccc1)c1c[nH]c2ncnc(Nc3cccc(CCO)c3)c12
The melting point of the first is lower: 194 to 195 °C for the first, > 300 °C for the second.

First: N#CCNC(=O)C1(NC(=O)c2ccc(Cn3ccnc3)cc2)CCCCC1
Second: CCCCOc1ccc(C(=O)N[C@@H]2CCc3cccc(N4CCN(C)CC4)c3C2)cc1
The melting point of the first is higher: 194 to 196 °C for the first, 190 to 191 °C for the second.

Compared with COc1ccc(C(=O)Cc2c(Cl)cncc2Cl)c2c1OC(C)(C)O2, CNc1nc(-c2ccc(O)c(F)c2)cc2c(OC)cccc12 is higher in melting point: 133 to 134 °C for the first, 185 to 187 °C for the second.

Compared with Cc1ccccc1C(=O)Nc1nc(C(Cl)(Cl)Cl)ns1, O=C(NNC(=O)c1ccccc1C(F)(F)F)c1ccccc1Cl is lower in melting point: 170 °C for the first, 81.5 to 82.5 °C for the second.

First: COc1ccc(N2CCOCC2)c2sc(-c3nc4ccc(N(C)CC5CCOCC5)nc4[nH]3)nc12
Second: Cc1cc(-c2nc3cccnn3c2-c2ccnc(NC(=O)NC3CC3)c2)ccc1F
The melting point of the first is lower: 190 to 195 °C for the first, 222 to 223 °C for the second.

Compared with c1cnc2c(c1)nnn2-c1ccncc1, Clc1nccnc1OCCOc1cccc(Br)c1 is lower in melting point: 196 to 198 °C for the first, 57 to 58 °C for the second.

First: COC(CNC(=O)c1cccc(C(=O)NCC(OC)OC)c1)OC
Second: CC(=O)C(Cl)=NNc1ccc([N+](=O)[O-])cc1
The melting point of the first is lower: 76.5 to 78 °C for the first, 180 to 183 °C for the second.

First: C[C@@H](n1cnc2cccc(Cl)c2c1=O)[C@](O)(Cn1cncn1)c1ccc(F)cc1F
Second: CCCC1CCC(c2ccc(-c3cc(F)c(F)c(F)c3C=O)cc2)CC1 (stereo unspecified)
The melting point of the first is higher: 114 to 119 °C for the first, 62 °C for the second.

First: COCCOCCCn1c(C=O)c(Br)c2c3c(c(-c4ccccc4Cl)cc21)C(=O)NC3=O
Second: CCC(Oc1ccccc1F)C(=O)OC1CC(O)C=C2C=CC(C)C(CCC3CC(O)CC(=O)O3)C21 (mixture of isomers)
The melting point of the first is higher: 168 to 169 °C for the first, 136 to 138 °C for the second.

First: c1ccc(C2CCN(CCC(c3ccccc3)(c3ccccc3)c3nnn[nH]3)CC2)cc1
Second: O=C(N[C@H]1CC[C@H](CCN2CCC(c3cccc4c3CCO4)CC2)CC1)c1ccc(-c2ccccc2)cc1
The melting point of the first is lower: 149 to 157 °C for the first, 241 °C for the second.

First: COc1cc(Br)c(Br)cc1C=NNC(=N)NN=Cc1cc(Br)c(Br)cc1OC
Second: COc1ccc(C2NCCS2)cc1OC (stereo unspecified)
The melting point of the first is higher: 265 to 267 °C for the first, 54 to 56 °C for the second.

First: CC[Si](C#CC1(CO)OC(n2ccc(=O)[nH]c2=O)C(O)C1O)(CC)CC (stereo unspecified)
Second: COc1ccc2c(c1)CCc1cn[nH]c1-2
The melting point of the first is higher: 183 to 186 °C for the first, 162 to 164 °C for the second.
